Four compounds from patent US20070032513A1, “Quinazoline derivatives” (priority 2003, published 2007) can be followed below.

Structures are written as SMILES.

Data set [1] has as its target T1, EGFR tyrosine kinase (Homo sapiens, UniProt P00533).
T1 construct: Recombinant intracellular fragments of EGFR, erbB2 and erbB4; made in house; host or cells: baculovirus/Sf21 insect cells (cleared lysate used)
Nature of the data set: Protein tyrosine kinase phosphorylation assay, Test (a). It is filed as biochemical. As to conditions: recombinant intracellular fragment, ATP at Km concentration; read-out: IC50 (nM) Test (a) (Inhibition of EGFR tyrosine kinase protein phosphorylation). The procedure: This test measures the ability of a test compound to inhibit the phosphorylation of a tyrosine containing polypeptide substrate by EGFR, erbB2 or erbB4 tyrosine kinase enzyme.
Recombinant intracellular fragments of EGFR, erbB2 and erbB4 (accession numbers X00588, X03363 and L07868 respectively) were cloned and expressed in the baculovirus/Sf21 system. Lysates were prepared from these cells by treatment with ice-cold lysis buffer (20 mM N-2-hydroxyethylpiperizine-N′-2-ethanesulfonic acid (HEPES) pH7.5, 150 mM NaCl, 10% glycerol, 1% Triton X-100, 1.5 mM MgCl2, 1 mM ethylene glycol-bis(β-aminoethyl ether) N′,N′,N′,N′-tetraacetic acid (EGTA), plus protease inhibitors and then cleared by centrifugation.
Constitutive kinase activity of these recombinant proteins was determined by their ability to phosphorylate a synthetic peptide (made up of a random co-polymer of Glutamic Acid, Alanine and Tyrosine in the ratio of 6:3:1). Specifically, Maxisorb™ 96-well immunoplates were coated with synthetic peptide (0.2 μg of peptide in a 200 μl phosphate buffered saline (PBS) solution and incubated at 4° C. overnight). Plates were washed in 50 mM HEPES pH 7.4 at room temperature to remove any excess unbound synthetic peptide. EGFR or erbB2 activities were assessed by incubation in peptide coated plates for 20 minutes at room temperature in 100 mM HEPES pH 7.4 at room temperature, adenosine trisphosphate (ATP) at Km concentration for the respective enzyme, 10 mM MnCl2, 0.1 mM Na3VO4, 0.2 mM DL-dithiothreitol (DIT), 0.1% Triton X-100 with test compound in DMSO (final concentration of 2.5%). Reactions were terminated by the removal of the liquid components of the assay followed by washing of the plates with PBS-T (phosphate buffered saline with 0.5% Tween 20).
The immobilised phospho-peptide product of the reaction was detected by immunological methods. Firstly, plates were incubated for 90 minutes at room temperature with anti-phosphotyrosine primary antibodies that were raised in the mouse (4G10 from Upstate Biotechnology). Following extensive washing, plates were treated with Horseradish Peroxidase (HRP) conjugated sheep anti-mouse secondary antibody (NXA931 from Amersham) for 60 minutes at room temperature. After further washing, HRP activity in each well of the plate was measured colorimetrically using 22′-Azino-di-[3-ethylbenzthiazoline sulfonate (6)] diammonium salt crystals (ABTS™ from Roche) as a substrate.
Quantification of colour development and thus enzyme activity was achieved by the measurement of absorbance at 405 nm on a Molecular Devices ThermoMax microplate reader. Kinase inhibition for a given compound was expressed as an IC50 value. […] The range of phosphorylation was calculated from the positive (vehicle plus ATP) and negative (vehicle minus ATP) control values.

Data set [2] deals with KB cells. In words: EGFR driven KB cell proliferation assay, Test (b). The data set is classed as cell-based. As to conditions: Homo sapiens, 96 h, EGF 1 ng/ml, incubation for 4 days, MTT. The method, then: This assay measures the ability of a test compound to inhibit the proliferation of KB cells (human naso-pharangeal carcinoma obtained from the American Type Culture Collection (ATCC)).
KB cells were cultured in Dulbecco's modified Eagle's medium (DMEM) containing 10% foetal calf serum, 2 mM glutamine and non-essential amino acids at 37° C. in a 7.5% CO2 air incubator. Cells were harvested from the stock flasks using Trypsin/ethylaminediaminetetraacetic acid EDTA). Cell density was measured using a haemocytometer and viability was calculated using trypan blue solution before being seeded at a density of 1.25×10^3 cells per well of a 96 well plate in DMEM containing 2.5% charcoal stripped serum, 1 mM glutamine and non-essential amino acids at 37° C. in 7.5% CO2 and allowed to settle for 4 hours.
Following adhesion to the plate, the cells are treated with or without EGF (final concentration of 1 ng/ml) and with or without compound at a range of concentrations in dimethylsulfoxide (DMSO) (0.1% final) before incubation for 4 days. Following the incubation period, cell numbers were determined by addition of 50 μl of 3-(4,5-Dimethylthiazol-2-yl)-2,5-diphenyltetrazolium bromide (MTT) (stock 5 mg/ml) for 2 hours. MIT solution was then tipped off, the plate gently tapped dry and the cells dissolved upon the addition of 100 μl of DMSO.
Absorbance of the solubilised cells was read at 540 nm using a Molecular Devices ThermoMax microplate reader. Inhibition of proliferation was expressed as an IC50 value. […] The range of proliferation was calculated from the positive (vehicle plus EGF) and negative (vehicle minus EGF) control values.

T1 sequence (P00533 669-1210 limits assumed): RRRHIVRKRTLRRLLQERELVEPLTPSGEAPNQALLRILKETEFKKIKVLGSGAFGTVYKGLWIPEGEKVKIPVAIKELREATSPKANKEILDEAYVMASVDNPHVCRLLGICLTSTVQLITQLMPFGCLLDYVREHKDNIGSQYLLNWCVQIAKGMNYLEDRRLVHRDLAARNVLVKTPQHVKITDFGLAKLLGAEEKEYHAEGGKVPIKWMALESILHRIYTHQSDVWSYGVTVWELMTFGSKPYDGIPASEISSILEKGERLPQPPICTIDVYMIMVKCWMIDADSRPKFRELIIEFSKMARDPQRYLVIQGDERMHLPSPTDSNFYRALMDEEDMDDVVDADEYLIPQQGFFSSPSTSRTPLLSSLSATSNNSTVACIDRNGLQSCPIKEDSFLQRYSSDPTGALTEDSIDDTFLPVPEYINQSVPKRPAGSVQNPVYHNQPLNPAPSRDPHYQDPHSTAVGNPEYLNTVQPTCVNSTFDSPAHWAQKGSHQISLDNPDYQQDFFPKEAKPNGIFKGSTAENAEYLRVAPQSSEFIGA

What is called IC50 is the concentration needed to halve the response being measured. Consider `COc1cc2c(Nc3cccc(Cl)c3F)ncnc2cc1OC1CCN(C(=O)C2CCC(=O)N2)CC1` (stereo not drawn) [6[5], 5-{[4-({4-[3-chloro-2-fluoroanilino]-6-methoxyquinazolin-7-yl}oxy)piperidin-1-yl]carbonyl}pyrrolidin-2-one], for which the IC50 in data set [1] was determined as 41 nM; in data set [2], 397 nM.
In the case of `COc1cc2c(Nc3cccc(Cl)c3F)ncnc2cc1OC1CN(C(=O)[C@H](C)O)C1` [Example 3], the values for the IC50 in data set [1] and in data set [2] were 17 nM and 71 nM, respectively.
The like results for `COc1cc2c(Nc3cccc(Cl)c3F)ncnc2cc1OC1CN(C(=O)[C@@H](C)O)C1` [Example 4, (2R)-1-[3-({4-[3-Chloro-2-fluoroanilino]-6-methoxyquinazolin-7-yl}oxy)azetidin-1-yl]-1-oxopropan-2-ol] were, in that order, 8 nM and 48 nM.
What is called melting point is the temperature of the solid-liquid transition. `COCC(=O)N1CC[C@@H](Oc2cc3ncnc(Nc4cccc(Cl)c4F)c3cc2OC)C1` [Example 5, N-(3-Chloro-2-fluorophenyl)-6-methoxy-7-{[(3R)-1-(methoxyacetyl)pyrrolidin-3-yl]oxy}quinazolin-4-amine] yielded a melting point of 73 to 77 °C. In addition, the IC50 in data set [1] came out at 217 nM. In addition, in data set [2], inhibition was half-maximal at 119 nM (IC50).
